Assay results taken from patent US20230323279A1, “MUTANT ALGAE, METHOD OF PREPARATION AND APPLICATION THEREOF” (Reliance Industries Limited, priority 2022, published 2023).

What was measured:
Type in all cases: cell-based, Picochlorum
mutant algae NCAR-1 = experiment: Total intracellular ATP, bioluminescence (luciferase) assay
Method: (§1) Total intracellular ATP levels in wild type algae and the mutant algae were measured using molecular probes bioluminescence assay kit. The assay is based on luciferase’s requirement for ATP in producing light (emission maximum of about 560 nm at pH 7.8) from the reaction
(§2) Niclosamide was added to mid log cells (OD750 at about 0.3) of both wild type algae and mutant algae and samples (OD = 10^8 cells) were collected after about 12 hours for ATP measurement. About 1 ppm of Oligomycin A (inhibitor of ATP synthase) was used as positive control to inhibit ATP synthesis. intracellular ATP concentration in mutant algae and wild type of the algae in presence of Niclosamide was described in Table 3.

mutant algae NCAR-2 = experiment: as above
Method: as §1, §2

wild type algae (WT) = experiment: as above; settings: about 12 hours; for ATP conc. / bioluminescence reading, Average / bioluminescence reading, replicate 1 / bioluminescence reading, replicate 2: 1 ppm drug; for ATP depletion / lower ATP levels: about 1 ppm drug
Method: as §1, §2

[1] = tested on: wild type of the algae (WT); experiment: Growth of algae culture (OD at 750 nm)
Source text: FIG. 1 A) illustrates a plot describing no growth of wild type of the algae (WT) in presence of Niclosamide (OD at 750 nm); and B) depicts an image of cultures showing no growth of wild type algae in presence of Niclosamide.
(§3) FIG. 4 A) illustrates a plot describing comparative growth of wild type of the algae and mutant algae (NCAR-1 and NCAR-2) at different concentrations of Niclosamide; and B) depicts an image of cultures showing no growth of wild type algae (WT) and growth of mutant algae (NCAR-1 and NCAR-2) at 10 ppm of Niclosamide, respectively.

[2] = tested on: mutant algae (NCAR-1 and NCAR-2); experiment: Growth of algae culture (OD at 750 nm); settings: for growth of mutant algae as compared to wild type of the algae: about 2 ppm and about 5 ppm, FIGS. 7-9
Source text: as §3

[3] = tested on: mutant algae (NCAR-1 and NCAR-2); experiment: Volumetric productivity (AFDW mg/L/day); settings: about 2 ppm and about 5 ppm; for volumetric productivity of mutant algae as compared to wild type of the algae: FIGS. 10-12
Source text: The term ‘productivity’ as used herein refers to amount of product the algae can produce under defined conditions. Productivity can be measured in grams of dry weight of algae. Alternatively, productivity can be measured in terms of the rate of production of a desirable product or product(s) such as lipid, protein, carbohydrate and/or any other biomolecule produced by the algae. The term ‘volumetric productivity’ refers to increase in biomass weight of algae/L/day.
Thus, clearly establishing that the mutant algae is resistant to salicylanilide based drug, such as Niclosamide as compared to wild type of the algae.

[4] = tested on: mutant algae (NCAR-1 and NCAR-2); experiment: Photosynthetic efficiency/health; settings: about 1 ppm, about 2 ppm and about 5 ppm, FIG. 6
Source text: FIG. 6 illustrate plots describing photosynthetic efficiency/health of- A) wild type of the algae (WT); B) mutant algae (NCAR-1); and C) mutant algae (NCAR-2) at different concentrations of Niclosamide (last day is 7th Day).
The improved photosynthetic efficiency of the mutant algae explicitly implies resistance of the mutant algae to salicylanilide based drug, such as Niclosamide and that the wild type of the algae is not resistant to the salicylanilide based drug.

WT cells = experiment: Killing of WT cells on EMS exposure (mutagenesis); settings: 0.6 M, about 1 hours, about 1 × 10^8 /ml cells
Method: About 1 × 10^8 /ml WT cells were treated with 0.6 M EMS for about 1 hours. […] The alive cells were allowed to recover in dark overnight and then in low light for about a week. Upon recovering the mutant algae population was exposed to about 0.5 ppm of Niclosamide and enriched in presence of Niclosamide for several generations. As the growth rate in the presence of Niclosamide increased, the selection pressure was increased to about 1 ppm and then to about 2 ppm of Niclosamide, respectively. The mutant pool was grown in presence of about 2 ppm Niclosamide (for about 300 generations, about 1 year) till the growth rates became constant. At this stage, FACS sorting of the Niclosamide resistant mutant pool was performed to get individual Niclosamide resistant mutant algae. About 100 individual mutants were isolated and were further checked for growth in the presence of about 2 ppm Niclosamide. The list was narrowed down to about 10 stable mutants after about 2 rounds of growth screening. Finally, after about 10 rounds of repeated growth screening in the presence of about 2 ppm Niclosamide, stable mutant algae (NCAR-1 & NCAR-2) were selected, based on the stable drug resistant phenotype and consistent growth & productivity.

[5] = NCAR-1, 1 ppm drug, about 12 hours
[6] = NCAR-2, 1 ppm drug, about 12 hours

| SMILES | ATP conc. (wild type algae (WT)) | bioluminescence reading, Average (wild type algae (WT)) | bioluminescence reading, replicate 1 (wild type algae (WT)) | bioluminescence reading, replicate 2 (wild type algae (WT)) | ATP depletion / lower ATP levels (wild type algae (WT)) | growth of mutant algae as compared to wild type of the algae [2] | volumetric productivity of mutant algae as compared to wild type of the algae [3] | also measured |
| --- | --- | --- | --- | --- | --- | --- | --- | --- |
| O=C(Nc1ccc([N+](=O)[O-])cc1Cl)c1cc(Cl)ccc1O [Niclosamide, niclosamide] | ~ 28.80 nM | 174.5 | 204 | 145 | about 90% | improved growth | improved volumetric productivity | ATP conc. (mutant algae NCAR-1; [5]): 125.68 nM; bioluminescence reading, Average (mutant algae NCAR-1; [5]): 761.5; bioluminescence reading, replicate 1 (mutant algae NCAR-1; [5]): 835; bioluminescence reading, replicate 2 (mutant algae NCAR-1; [5]): 688; ATP depletion (mutant algae NCAR-1; NCAR-1, after about 12 hours of drug addition): about 50%; ATP conc. (mutant algae NCAR-2; [6]): 138.55 nM; bioluminescence reading, Average (mutant algae NCAR-2; [6]): 839.5; bioluminescence reading, replicate 1 (mutant algae NCAR-2; [6]): 890; bioluminescence reading, replicate 2 (mutant algae NCAR-2; [6]): 789; ATP depletion (mutant algae NCAR-2; NCAR-2, after about 12 hours of drug addition): about 50%; growth of wild type of the algae ([1]; 10 ppm, FIG. 4B): no growth; growth of wild type of the algae (OD at 750 nm) ([1]; in presence of drug, FIG. 1): no growth; growth of mutant algae ([2]; 10 ppm, FIG. 4B): evident growth; volumetric productivity of mutant algae ([3]; about 1 ppm, FIG. 5): equal to or greater than the volumetric productivity of the wild type of the algae in absence of Niclosamide; photosynthetic efficiency/health of mutant algae as compared to wild type of the algae [4]: improved photosynthetic efficiency/health |
| O=C(Nc1cc(Cl)cc(Cl)c1O)c1c(O)c(Cl)cc(Cl)c1Cl [Oxyclozanide, oxyclozanide] |  |  |  |  |  | improved growth | improved volumetric productivity |  |
| CCOS(C)(=O)=O [EMS, ethyl methanesulfonate] |  |  |  |  |  |  |  | killing of the WT cells (WT cells): about 50% |
| CC[C@H]1/C=C/C=C/C[C@@H](C)[C@H](O)[C@@](C)(O)C(=O)[C@@H](C)[C@H](O)[C@@H](C)C(=O)[C@@H](C)[C@H](O)[C@@H](C)/C=C/C(=O)O[C@@H]2[C@H](C)[C@H](CC1)O[C@]1(CC[C@H](C)[C@H](C[C@@H](C)O)O1)[C@H]2C [Oligomycin, Oligomycin A] | 178.49 nM | 1081.5 | 1181 | 982 | about 40% |  |  |  |
| Cc1cc(C(C#N)c2ccc(Cl)cc2)c(Cl)cc1NC(=O)c1cc(I)cc(I)c1O (stereo not shown) [Closantel, closantel] |  |  |  |  |  | improved growth | improved volumetric productivity |  |
| O=C(Nc1ccc(Oc2ccc(Cl)cc2)c(Cl)c1)c1cc(I)cc(I)c1O [Rafoxanide, rafoxanide] |  |  |  |  |  | improved growth | improved volumetric productivity |  |
